Laboratory results from patent US20220016067A1, “NOVEL ANTI-INFLAMMATORY COMPOUND, PRODUCING METHOD AND USE THEREOF” (priority 2020, published 2022).

Experiments:
Assay type in all cases: cell-based
RAW264.7 cells = experiment: Cytotoxicity test (Alamar blue) in RAW264.7 cells; conditions: 25, 50, 100, 200, 400 and 800 μM, 24 hours
Description: RAW264.7 cells are cultured in RPMI medium containing 10% fetal bovine serum, 0.2% sodium bicarbonate and 1% penicillin/streptomycin, and in a 5% CO2, 37° C. incubator. The cells are subcultured when a confluency of 70-80% is reached. RAW264.7 cells are inoculated in a 96-well plate at a density of 4×10^4 cells/well per well. After the cells are adhered for overnight incubation, Pineapplin PL6 at different concentrations (25, 50, 100, 200, 400 and 800 μM) or pineapple extract (3, 6, 12 mg/ml) is added to each well. The blank control group is treated with culture medium without the Pineapplin PL6 or pineapple extract After 24 hours of incubation, Alamar blue is used to test cytotoxicity of the Pineapplin PL6. The medium is removed, washed twice with PBS, and diluted 10 times with Alamar Blue reagent in the medium without FBS. After reaction in dark for 6 hours, the change in absorbance at a wavelength of 570 nm is measured by using an ELISA reader.

[1] = system: nitric oxide production induced by LPS in RAW264.7 macrophages; experiment: LPS-induced NO production in RAW264.7 macrophages (Griess reagent); conditions: 200 μM and 400 μM, LPS 200 ng/ml, RAW264.7, 24 hours
Description: RAW264.7 cells are inoculated in a 96-well plate at a density of 4×10^5 cells/well. After the cells are adhered overnight, 200 ng/ml LPS is added, the blank control group has no LPS added, and incubated at 5% CO2 and 37° C. for 24 hours. On the second day, different concentrations (50, 100, 200 and 400 μM) of Pineapplin PL6 are added to the wells. The blank control group is treated with LPS-free medium, and the blank control group is treated with PL6-free LPS medium. The cells are then cultured under the condition of 5% CO2 and 37° C. After 24 hours of incubation, 150 μl of medium for each group is collected.
A solution of 1% p-aminobenzene sulfonic acid dissolved in 5% phosphoric acid is prepared, and then mixed with 0.1% N-(1-naphthyl)ethylenediamine dihydrochloride at a ratio of 1:1 to form the Griess reagent. Solutions of sodium nitrite at concentrations of 1.5625 μM to 100 μM are prepared for making a standard curve. 150 μl of the collected medium is mixed with 50 μl of the Griess reagent, and reacted in a dark environment for 30 minutes. The change in absorbance at a wavelength of 555 nm is measured using an ELISA reader.

iNOS = experiment: LPS-induced iNOS expression in RAW264.7 macrophage cells (Western blot); conditions: LPS 200 ng/ml, PL6 50-400 μM, 24 hours
Description: The effect of Pineapplin PL6 on the LPS-induced iNOS expression is tested in RAW264.7 macrophage cells. The iNOS/β-actin ratio is the relative expression level of iNOS and β-actin protein. The higher the expression level of iNOS, the more inflammation response occurred (as an inflammation index). RAW264.7 macrophage cells were pretreated with LPS (200 ng/ml) for 24 hours, then incubated with various concentrations (50, 100, 200 and 400 μM) of PL6 at 5% CO2 and 37° C. for 24 hours. The (−) control group is treated with LPS-free medium, and the (+) control group is treated with PL6-free LPS medium. The cell culture supernatant of each group is collected, then the protein concentration is calculated, and 30 μg of total protein is taken from each group for protein gel electrophoresis. […] The luminescence fluorescence digital analysis system (ImageQuant LAS 400 mini, GE Healthcare Life Sciences) is used for luminescence color development.
The data shown in FIG. 7 is the relative expression of iNOS protein to β-actin, which is calculated by a software, based on the values obtained from the luminescence color film using scanning optical density method and standardized to β-actin protein.

NFκB = experiment: LPS-induced NFκB expression (p-p65/p65) in RAW264.7 macrophage cells (Western blot); conditions: LPS 200 ng/ml, PL6 50-400 μM, 24 hours
Description: In this example, effect of Pineapplin PL6 on the LPS-induced NFκB expression is further tested in the RAW264.7 macrophage cell line. The value of p-p65/p65 is the relative expression level of NFκB protein. The higher the expression level of NFκB, the more inflammation response occurred (as an inflammation index). RAW264.7 macrophage cells were pretreated with LPS (200 ng/ml) for 24 hours, then incubated with various concentrations (50, 100, 200 and 400 μM) of PL6 for 24 hours at a condition of 5% CO2 and 37° C. The (−) control group is treated with LPS-free medium, and the (+) control group is treated with PL6-free LPS medium. The cell culture supernatant of each group is collected, then the protein concentration is calculated, and 30 μg of total protein is taken from each group for protein gel electrophoresis. […] After washing with PBST, the developing agent (Western Chemiluminescent HRP Substrate) is added, and the luminescence fluorescence digital analysis system (ImageQuant LAS 400 mini, GE Healthcare Life Sciences) is used for luminescence color development.
The data shown in FIG. 8 is the relative expression of NFκB protein p-p65/p65, which is calculated by a software, based on the values obtained from the luminescence color film using scanning optical density method and standardized to β-actin protein.

How did the “cytotoxicity to RAW264.7 cells” value (RAW264.7 cells) turn out when “1,2,3-tricarboxylic acid-propyl-3-hydroxyphenol acrylate [Pineapplin PL6]” was run?
Its value is “no obvious cytotoxicity”.

And the “production of nitric oxide induced by LPS” value [1]?
Its value is “significantly reduces”.

What about the “iNOS protein expression (iNOS/β-actin)” value (iNOS) of the same substance?
The value was “inhibiting iNOS protein expression”.

And the “NFκB protein expression (p-p65/p65)” value (NFκB)?
Its value is “inhibiting NFκB protein expression”.
